These results are taken from patent publication US7910588B2, “5-HT7 receptor antagonists” (Eli Lilly and Company, priority 2007, dated 2011).

The term Ki denotes the dissociation constant of the complex between target and ligand, obtained from inhibition or displacement. Low values mean tighter binding, high ones weaker binding.

One assay has as its target T1, 5-HT1B (Homo sapiens, UniProt P28222).
T1 construct: expressed in transfected cells
The assay can be described thus: Radioligand binding assay, 5-HT1B. As to the method: (§1) [^3H] […] The reactions are incubated at room temperature for 3 hr. and then counted in a Trilux Microbeta™ scintillation counter to detect receptor-bound radioligand. Binding data are analyzed by computer-assisted 4 parameter fit analysis (ID Business Solutions Ltd, Guildford, Surrey, UK). […]
(§2) Affinity for other serotonin receptor subtypes as well as for alpha 1 & 2 adrenergic receptors can readily be determined by modification of the above described radioligand receptor binding assay using membranes derived from cells stably expressing the desired receptor subtype including the 5-HT1A, 5-HT1B, and 5-HT1D subtypes, as well as the 5-HT2A, 5-HT2B, 5-HT2C, 5-HT4, 5-HT7, and 5-HT6 receptor subtypes. […]

A further assay addresses alpha 2 adrenergic. Description: Radioligand binding assay, alpha 2 adrenergic. As to the method: as §1, §2
In a further assay the target is T2, 5-HT5 (Homo sapiens, UniProt P47898).
T2 construct: expressed in transfected cells
The assay can be described thus: Radioligand binding assay, 5-HT5. The procedure: as §1, §2

In the next assay the target is T3, 5-HT2B (Homo sapiens, UniProt P41595).
T3 construct: expressed in transfected cells
The assay can be described thus: Radioligand binding assay, 5-HT2B. The procedure: as §1, §2

In a further assay the target is T4, 5-HT2C (Homo sapiens, UniProt P28335).
T4 construct: expressed in transfected cells
T4 sequence (P28335 33-458): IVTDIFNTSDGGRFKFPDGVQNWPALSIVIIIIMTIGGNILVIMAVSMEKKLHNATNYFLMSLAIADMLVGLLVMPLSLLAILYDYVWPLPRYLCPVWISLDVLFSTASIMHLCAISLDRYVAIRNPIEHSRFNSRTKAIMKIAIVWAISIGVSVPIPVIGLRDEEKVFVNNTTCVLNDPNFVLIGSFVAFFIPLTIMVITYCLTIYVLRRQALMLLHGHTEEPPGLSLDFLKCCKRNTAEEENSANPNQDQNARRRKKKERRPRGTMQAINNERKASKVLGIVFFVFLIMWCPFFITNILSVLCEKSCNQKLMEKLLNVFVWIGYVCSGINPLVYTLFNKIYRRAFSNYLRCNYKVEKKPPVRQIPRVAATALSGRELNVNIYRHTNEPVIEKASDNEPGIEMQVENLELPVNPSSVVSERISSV
The assay can be described thus: Radioligand binding assay, 5-HT2C. The procedure: as §1, §2

T3 sequence (P41595 whole entry, species assumed): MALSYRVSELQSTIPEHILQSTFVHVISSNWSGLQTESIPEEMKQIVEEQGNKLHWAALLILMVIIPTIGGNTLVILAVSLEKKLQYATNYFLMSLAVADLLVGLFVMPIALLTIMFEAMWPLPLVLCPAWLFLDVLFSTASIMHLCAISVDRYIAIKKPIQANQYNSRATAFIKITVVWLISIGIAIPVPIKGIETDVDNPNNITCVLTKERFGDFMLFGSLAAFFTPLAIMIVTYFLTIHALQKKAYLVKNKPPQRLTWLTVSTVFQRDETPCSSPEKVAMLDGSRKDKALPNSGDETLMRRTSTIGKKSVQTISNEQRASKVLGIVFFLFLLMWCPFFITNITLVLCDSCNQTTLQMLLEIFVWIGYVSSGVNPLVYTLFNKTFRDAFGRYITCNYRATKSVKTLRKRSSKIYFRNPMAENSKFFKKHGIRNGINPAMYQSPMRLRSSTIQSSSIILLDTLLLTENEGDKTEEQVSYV
T1 sequence (P28222 whole entry, species assumed): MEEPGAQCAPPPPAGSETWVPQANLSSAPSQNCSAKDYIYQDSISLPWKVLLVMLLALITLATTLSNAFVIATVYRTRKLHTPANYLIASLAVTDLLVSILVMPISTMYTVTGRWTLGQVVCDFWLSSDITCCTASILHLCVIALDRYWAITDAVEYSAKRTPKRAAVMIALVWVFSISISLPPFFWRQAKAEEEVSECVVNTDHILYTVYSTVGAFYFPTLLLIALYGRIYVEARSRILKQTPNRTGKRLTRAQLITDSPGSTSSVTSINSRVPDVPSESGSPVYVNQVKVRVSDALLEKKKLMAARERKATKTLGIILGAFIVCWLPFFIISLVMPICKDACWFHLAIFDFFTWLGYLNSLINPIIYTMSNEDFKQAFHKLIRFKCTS
T2 sequence (P47898 whole entry): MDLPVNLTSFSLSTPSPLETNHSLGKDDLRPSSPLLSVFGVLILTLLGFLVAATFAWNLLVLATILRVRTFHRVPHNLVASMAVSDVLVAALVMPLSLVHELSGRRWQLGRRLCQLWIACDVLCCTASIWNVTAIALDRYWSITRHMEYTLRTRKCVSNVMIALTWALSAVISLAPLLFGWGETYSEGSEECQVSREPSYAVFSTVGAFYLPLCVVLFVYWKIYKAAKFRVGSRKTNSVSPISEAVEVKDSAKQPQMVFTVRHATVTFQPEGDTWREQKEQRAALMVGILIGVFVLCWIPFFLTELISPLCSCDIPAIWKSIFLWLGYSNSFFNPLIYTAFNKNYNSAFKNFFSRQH

For the molecule `CCn1ncc(CN2CCN(c3cccnc3N3CCC(O)CC3)CC2)c1C.Cl` [Example 1, 3′-[4-(1-Ethyl-5-methyl-1H-pyrazol-4-ylmethyl)-piperazin-1-yl]-3,4,5,6-tetrahydro-2H-[1,2]bipyridinyl-4-ol hydrochloride], the inhibition constant Ki on 5-HT1B is over 3.58 µM; on alpha 2 adrenergic it was over 2.67 µM; at 5-HT5 it was 4.55 µM; at 5-HT2B, over 6.81 µM; on 5-HT2C, over 8.36 µM.
